Columns and labels:
[1] = human, in vivo
Description: This prospective trial was conducted under IRB#14-001682, IRB#14-001682-AM-00001, and IRB#14-001682-AM-00002 approved by the UCLA Institutional Review Board. Following liver transplant, patients were started on a regimen of tacrolimus, mycophenolate, and methylprednisolone. According to protocol, methylprednisolone dosing was tapered using a 1000-150-[…]-120-80-40-20 mg regimen. Methylprednisolone was subsequently changed to prednisone given at 20 mg which was commonly followed with a tapering protocol. Mycophenolate dosing was administered according to protocols determined by the clinical team. Serum trough levels were taken between 4:00-6:00 AM daily, and a first dose of tacrolimus was administered between 5:00 AM-6:00 AM daily, following the serum trough recording. The clinical team obtained the daily treatment regimen details including drugs already administered, drugs to be administered, hemodialysis to be performed, co-infections, and planned prophylaxis and sent an updated clinical chart for each patient to the FSC team.
Serum levels, drug regimen dosages, and other events such as hemodialysis were obtained every morning prior to analyses. In order to project optimum dosages, a 2nd order polynomial fit for each patient was made from linear regression with mainly two variables, such as trough concentration and tacrolimus dosing amount, and it was used with at least three prior data points for the specific patient.
Statistical analyses were performed by analyzing the accuracy of correlating 2nd order polynomial mapping to the patients' data since patient-specific treatment was conducted in this study. This was accomplished using the coefficient of determination, or R-squared analysis. Values were used to correlate clinical and regression data. Where relevant, statistical significances of all the generated maps for the data analyses were determined using a t-test at α=0.05 level of confidence.

[2] = Retrospective clinical analysis using FSC of liver transplant patient data (tacrolimus serum trough levels, Patients A and B); format: in vivo, human; settings: standard of care (clinically observed), target 8-10 ng/ml
Description: Retrospective clinical analysis was performed under IRB#14-001682 approved by the UCLA Institutional Review Board. Discharged liver transplantation patient data, such as serum level and drug regimen dosages, were obtained for analyses for the retrospective study. […] In this process, the inclusion of all the drugs as covariates allowed better representation of each patient's data and examination of the effects of drug-drug interactions within each patient's constructed map. Minimum values based on the difference between the individual patient's serum level reading and a target serum level during various small time windows were collected, and these were entered into the globally fitted map of each patient in order to find the optimum dose for that specific patient.

Serum Result (change of tacrolimus serum trough level on co-administration change) [1] | share of treatment with trough levels outside of the target range [1] [%] | trough reading higher than the anticipated trough level [1] [ng/mL] | trough reading lower than the anticipated trough level [1] [ng/mL] | day from which trough levels deviated permanently from the target range [2] [days] | Compound
+0.7 |  |  |  |  | CC(=O)NC[C@H]1CN(c2ccc(N3CCOCC3)c(F)c2)C(=O)O1 [Linezolid]
 | 91 | 0.5 | 2.0 | ≥ 15 | C=CC[C@@H]1/C=C(\C)C[C@H](C)C[C@H](OC)[C@H]2O[C@@](O)(C(=O)C(=O)N3CCCC[C@H]3C(=O)O[C@H](/C(C)=C/[C@@H]3CC[C@@H](O)[C@H](OC)C3)[C@H](C)[C@@H](O)CC1=O)[C@H](C)C[C@@H]2OC [tacrolimus]
